The record followed here is patent US20170165247A1, “CRYSTALLINE COMPOUNDS OF DABIGATRAN ETEXILATE” (OLON S.p.A., priority 2014, published 2017).

Data set [1] can be described thus: Kinetic dissolution of tablet in phosphate buffer pH 4.5. The data set is classed as physicochemical. Particulars: for Average Conc.: tablet dissolution. As to the method: Kinetic Dissolution Experimental Conditions for Tablet Dissolution Dissolution Medium: […] Temperature: 37±0.5° C. Volume: 80 mL Time: 2 hrs Sample: Tablet (weight 200 mg) Stirring: Paddle 100 rpm Sampling time: 5 min, 15 min, 25 min, 35 min, 45 min, 60 min and 120 min. Repetitions: 2 for each experiment At the time fixed, withdraw 3 mL from each vessel. Reinstate the withdrawn volume. Filter each solution with 0.20 μm filter, discarding the first 1 mL. […] Each withdrawal was analyzed without further dilution. The sample was analyzed using the chromatographic conditions reported herein.

The nature of data set [2]: Thermodynamic solubility test in buffer solution (HPLC). It is filed as physicochemical. Particulars: buffer pH 4.5, 37° C., 24 hours.
Description: The solubility tests were performed in a buffer solution at ph 4.5 and compared with the solubility data of dabigatran etexilate mesylate (commercial form).
Thermodynamic Solubility Tests
The sample (approx. 50 mg) was weighted in a vial and left under magnetic stirring (approx. 300 rpm) in approx. 2 mL of buffer solution at 37° C. for 24 hours. The experiments were carried out at pH 4.5 and pH 6.8. The suspensions were filtered with 0.45 μm filter and analyzed by HPLC method previously reported. From the obtained area an opportune dilution of the sample was performed to obtain a value consistent with the Calibration Curve. Every diluted sample was analyzed by HPLC and the results were interpolated by the calibration curve.
Each experiment was replicated twice.

`CCCCCCOC(=O)N=C(N)c1ccc(NCc2nc3cc(C(=O)N(CCC(=O)OCC)c4ccccn4)ccc3n2C)cc1.O=C(O)c1cc(O)c(O)c(O)c1` [Dabigatran/gallate 1/1]: the “Average Conc.” value in data set [1] (pH 4.5, time 5 min) is 10.01; in data set [1] (pH 4.5, time 15 min), 28.10; in data set [1] (pH 4.5, time 25 min) it was 44.94; in data set [1] (pH 4.5, time 35 min), 62.45; in data set [1] (pH 4.5, time 45 min), 75.18; in data set [1] (pH 4.5, time 60 min) it was 90.21. The “Average Conc.” value in data set [1] (pH 4.5, time 120 min) was 106.50.
Regarding `CCCCCCOC(=O)NC(=N)c1ccc(NCc2nc3cc(C(=O)N(CCC(=O)OCC)c4ccccn4)ccc3n2C)cc1.CS(=O)(=O)O` [Dabigatran/mesylate 1/1], the “Average Conc.” value in data set [1] (pH 4.5, time 5 min) was found to be 6.86; in data set [1] (pH 4.5, time 15 min), 9.09; in data set [1] (pH 4.5, time 25 min), 11.40; in data set [1] (pH 4.5, time 35 min), 13.28; in data set [1] (pH 4.5, time 45 min), 15.96; in data set [1] (pH 4.5, time 60 min) it was 18.55. Further, the “Average Conc.” value in data set [1] (pH 4.5, time 120 min) worked out at 26.44.
With `CCCCCCOC(=O)N=C(N)c1ccc(NCc2nc3cc(C(=O)N(CCC(=O)OCC)c4ccccn4)ccc3n2C)cc1.O=C(O)c1cc(=O)[nH]c(=O)[nH]1` [Dabigatran/orotate 1/1], the “Average Conc.” value in data set [1] (pH 4.5, time 5 min) was found to be 8.76; in data set [1] (pH 4.5, time 15 min) it was 11.06; in data set [1] (pH 4.5, time 25 min), 12.26; in data set [1] (pH 4.5, time 35 min) it was 13.74; in data set [1] (pH 4.5, time 45 min), 15.52; in data set [1] (pH 4.5, time 60 min), 17.21. In data set [1] (pH 4.5, time 120 min), the “Average Conc.” value is 28.89.
Turning to “Dabigatran Etexilate Orotate Anhydrous Form a (Dabigatran/Orotic Acid 1/1 Mol/Mole)”, the “dissolution rate compared with the mesylate salt (in words)” value in data set [1] (kinetic dissolution, phosphate buffer pH 4.5, 37° C.) is reported as “comparable”. Also, the “dissolution rate, times higher than the mesylate derivative” value in data set [1] (tablet, phosphate buffer pH 4.5, 37° C., paddle 100 rpm, compared with mesylate) is reported as “more than 8.7 times”.
With Gallate, the Average Conc. in data set [2] was found to be 0.40 µg/mL.
